Experimental data reported in PubChem BioAssay AID1963438 (Molecular Pharmacology Branch, DTP, NCI, 2024).
pIC50: −log10 of the molar value. Values joined by “and” are separate entries in the source; they are usually repeats but may differ in a detail not shown here. Equal entries are not always repeated.

Tested on: NCI-H510 multicellular tumor spheroid growth, % test/control
Assay: Anticancer human tumor NCI-H510 cell line growth inhibition [Asc];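 further: spheroids exposed to agents for 7 days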;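 on viability, T/C: 100% = DMSO vehicle control wells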
Conditions: for viability, T/C: stronger effect = lower value
Method: Multicellular complex tumor spheroid response to apoptosis pathway targeting inhibitors Alrizomadlin, Pelcitoclax, and Dasminapant in combination with a variety of drugs and investigational agents in selected tumor cell lines
The MDM2 inhibitor alrizomadlin, the Bcl-2/Bcl-xL inhibitor pelcitoclax, and the IAPs inhibitor dasminapant were evaluated both individually and in combination with standard of care and investigational anticancer small molecules within a complex spheroid model of solid tumors. . Complex spheroids include a stromal component modeled by human endothelial cells (HUVEC) and fibroblasts modeled by human mesenchymal stem cells (MSCs). The concentration ranges selected for each drug and investigational agent were based upon clinically achievable concentrations if the clinical Cmax of the agent was known.
Compounds. The drugs and investigational agents: alrizomadlin (APG-115; NSC831270), pelcitoclax (APG-1252; NSC835773), dasminapant (APG-1387;NSC834197), TAK-243 (NSC785004), copanlisib (NSC809693), olaparib (NSC753686), talazoparib (NSC767125), cobimetinib (NSC 768068), eltanexor (KPT-8602, NSC 794443), abemaciclib (NSC 768073), sotorasib (NSC818433), adagrasib (NSC 831453), MRTX-1133 (NSC 836407), Iadademestat (ORY1001, NSC 806812), and RMC-4630 (NSC839698), were obtained from the NCI Developmental Therapeutics Program Chemical Repository. The FDA-approved anticancer drug set is available from the Developmental Therapeutics Program at https://dtp.cancer.gov/organization/dscb/obtaining/available plates.htm. […] The stock solutions were prepared in dimethyl sulfoxide (DMSO, Sigma-Aldrich, St. Louis, MO, cat. D2650) at 800-fold the tested concentration and stored at -70 degrees C prior to their use. All drugs and investigational agents were tested over a range starting from a high concentration at or near the clinical Cmax and decreasing in half-log increments. If the clinical Cmax for an agent had not been determined, the highest concentration tested was 10 microM.
The patient-derived cancer (PDC) cell lines include five colon adenocarcinomas: 186277-243-T-J2-PDC, 616215-338-R-J1-PDC, 439559-082-T-J2-PDC, 463943-066-T-J2-PDC, and 519858-162-T-J1-PDC; three pancreatic carcinomas: 323965-272-R-J2-PDC, 521955-158-R6-J3-PDC, and 521955-158-R2-J5-PDC; two uterine sarcomas: 327498-152-R-J2-PDC and 993429-296-R-J1-PDC; two rhabdomyosarcomas: 755483-174-R-J1-PDC and 772245-204-R-J1-PDC; two soft tissue sarcomas: 126254-015-R-J1-PDC and 494315-158-R-J1-PDC; two malignant fibrous histiocytomas: 317291-083-R-J1-PDC and 596521-263-R-J1-PDC; two breast carcinomas: 171881-019-R-J1-PDC and 885512-296-R-J2-PDC; and one ovarian carcinoma: 6556581-035-R-J-PDC were obtained from the NCI PDMR, (https://pdmr.cancer.gov). The established cell lines HSSY-2 synovial sarcoma (RRID:CVCL 8719), SYO-1 synovial sarcoma (RRID:CVCL_7146), MPNST malignant peripheral neural sheath tumor were obtained from the Sloan Kettering Institute. The following established cell lines were purchased from the American Type Culture Collection (ATCC, Manassas, VA), Sor the received from the NCI repository:, PANC-1 pancreatic carcinoma (CRL-1469, RRID:CVCL_0480), OVCAR-5 ovarian carcinoma (RRID:CVCL_1628), OVCAR-8 ovarian carcinoma (RRID:CVCL_1629), , MCF-7 breast carcinoma (CRL-12584, RRID:CVCL_0031), MDA-MB-231 breast carcinoma (CRL-12532, RRID:CVCL_0062), NCI-H1876 small cell lung carcinoma (CRL-5902, RRID:CVCL_1503), NCI-H510A small cell lung carcinoma (HTB-184, RRID:CVCL_1565), NCI-H1417 (CRL-5869, RRID:CVCL_1469), and NCI-H196 small cell lung carcinoma (CRL-5823, RRID:CVCL_1509). Dr. Peter Houghton (Greehey Children's Cancer Research Institute, University of Texas Health Science Center, San Antonio, TX) provided Rh-18 rhabdomyosarcoma (RRID:CVCL_1659). Pooled donor human umbilical vein endothelial cells (HUVEC, Lonza, cat. CC-2519) and human mesenchymal stem cells (hMSC, Lonza, cat. PT-2501) were purchased from Lonza (Walkersville, MD).
Cell Culture. […]

In the case of `O=C(c1cc(Cc2n[nH]c(=O)c3ccccc23)ccc1F)N1CCN(C(=O)C2CC2)CC1` + Cc1c(S(C)(=O)=O)c(-c2cc(F)cc(N3CCN(c4ccc(NS(=O)(=O)c5ccc(NC(CCN6CCC(C(=O)OCCCP(=O)(O)O)CC6)CSc6ccccc6)c(S(=O)(=O)C(F)(F)F)c5)cc4)CC3)c2)c(-c2ccc(Cl)cc2)n1C(C)C, the pIC50 (curve of first compound, second compound 0.1 µM) was 5.79, the pIC50 (curve of first compound, second compound 0.316 µM) was 5.82 and the pIC50 (curve of first compound, second compound 1 µM) was 5.83. For the same compound, the pIC50 (curve of first compound, second compound 3.16 µM) was 5.94, the pIC50 (curve of first compound, second compound 10 µM) was 5.88 and the viability, T/C (second compound 0.1 µM, first compound 0.0316 µM) was 94.8%. For the same compound, the viability, T/C (second compound 0.1 µM, first compound 0.1 µM) was 101%, the viability, T/C (second compound 0.1 µM, first compound 0.316 µM) was 107% and the viability, T/C (second compound 0.1 µM, first compound 1 µM) was 74.1%. For the same compound, the viability, T/C (second compound 0.1 µM, first compound 3.16 µM) was 13.4%, the viability, T/C (second compound 0.1 µM, first compound 10 µM) was 18.7% and the viability, T/C (second compound 0.316 µM, first compound 0.0316 µM) was 124%. For the same compound, the viability, T/C (second compound 0.316 µM, first compound 0.1 µM) was 89.1%, the viability, T/C (second compound 0.316 µM, first compound 0.316 µM) was 106% and the viability, T/C (second compound 0.316 µM, first compound 1 µM) was 73.5%. For the same compound, the viability, T/C (second compound 0.316 µM, first compound 3.16 µM) was 8.58%, the viability, T/C (second compound 0.316 µM, first compound 10 µM) was 3.25% and the viability, T/C (second compound 1 µM, first compound 0.0316 µM) was 94.8%. For the same compound, the viability, T/C (second compound 1 µM, first compound 0.1 µM) was 112%, the viability, T/C (second compound 1 µM, first compound 0.316 µM) was 93.2% and the viability, T/C (second compound 1 µM, first compound 1 µM) was 69.5%. It also gave a viability, T/C (second compound 1 µM, first compound 3.16 µM) of 14.3%, a viability, T/C (second compound 1 µM, first compound 10 µM) of 3.96% and a viability, T/C (second compound 3.16 µM, first compound 0.0316 µM) of 111%. It also gave a viability, T/C (second compound 3.16 µM, first compound 0.1 µM) of 121%, a viability, T/C (second compound 3.16 µM, first compound 0.316 µM) of 87.1% and a viability, T/C (second compound 3.16 µM, first compound 1 µM) of 63.3%. The viability, T/C (second compound 3.16 µM, first compound 3.16 µM) was 4.95%, the viability, T/C (second compound 3.16 µM, first compound 10 µM) was 3.34% and the viability, T/C (second compound 10 µM, first compound 0.0316 µM) was 81.6%. It also gave a viability, T/C (second compound 10 µM, first compound 0.1 µM) of 94.5%, a viability, T/C (second compound 10 µM, first compound 0.316 µM) of 81.5% and a viability, T/C (second compound 10 µM, first compound 1 µM) of 65.2%. It also gave a viability, T/C (second compound 10 µM, first compound 3.16 µM) of 1.71% and a viability, T/C (second compound 10 µM, first compound 10 µM) of 1.74%.

For `C=CC(=O)N1CCN(c2nc(=O)n(-c3c(C)ccnc3C(C)C)c3nc(-c4c(O)cccc4F)c(F)cc23)C(C)C1` (centres undefined), the viability, T/C (compound 0.0316 µM) was 101% and 89.6% and 100%, the viability, T/C (compound 0.1 µM) was 100% and 95.4% and 104% and the viability, T/C (compound 0.316 µM) was 105% and 90.3% and 98.7%. The viability, T/C (compound 1 µM) was 94.5% and 82.8% and 106%, the viability, T/C (compound 3.16 µM) was 108% (2×) and 100% and the viability, T/C (compound 10 µM) was 96.6% and 75.9% and 110%. The pIC50 (curve of compound) was < 5.00.

In the case of `CNC(C)C(=O)NC1CN(S(=O)(=O)c2cccc(S(=O)(=O)N3CCC4CCC(C(=O)NC(c5ccccc5)c5ccccc5)N4C(=O)C(NC(=O)C(C)NC)C3)c2)CCC2CCC(C(=O)NC(c3ccccc3)c3ccccc3)N2C1=O` (centres undefined) + CCN1C(C(=O)NC23CCC(C(=O)O)(CC2)CC3)C(c2cccc(Cl)c2F)C2(C(=O)Nc3cc(Cl)ccc32)C12CCCCC2, the pIC50 (curve of first compound, second compound 0.03 µM) was < 6.00, the pIC50 (curve of first compound, second compound 0.0949 µM) was < 6.00 and the pIC50 (curve of first compound, second compound 0.3 µM) was < 6.00. For the same compound, the pIC50 (curve of first compound, second compound 0.949 µM) was < 6.00, the pIC50 (curve of first compound, second compound 3 µM) was < 6.00 and the viability, T/C (second compound 0.03 µM, first compound 0.00316 µM) was 96.8%. It also gave a viability, T/C (second compound 0.03 µM, first compound 0.01 µM) of 81.6%, a viability, T/C (second compound 0.03 µM, first compound 0.0316 µM) of 96.8% and a viability, T/C (second compound 0.03 µM, first compound 0.1 µM) of 101%. The viability, T/C (second compound 0.03 µM, first compound 0.316 µM) was 95.6%, the viability, T/C (second compound 0.03 µM, first compound 1 µM) was 97.8% and the viability, T/C (second compound 0.0949 µM, first compound 0.00316 µM) was 98.5%. The viability, T/C (second compound 0.0949 µM, first compound 0.01 µM) was 104%, the viability, T/C (second compound 0.0949 µM, first compound 0.0316 µM) was 87.8% and the viability, T/C (second compound 0.0949 µM, first compound 0.1 µM) was 77.2%. The viability, T/C (second compound 0.0949 µM, first compound 0.316 µM) was 105%, the viability, T/C (second compound 0.0949 µM, first compound 1 µM) was 83.5% and the viability, T/C (second compound 0.3 µM, first compound 0.00316 µM) was 81.6%. For the same compound, the viability, T/C (second compound 0.3 µM, first compound 0.01 µM) was 106%, the viability, T/C (second compound 0.3 µM, first compound 0.0316 µM) was 106% and the viability, T/C (second compound 0.3 µM, first compound 0.1 µM) was 93.4%. The viability, T/C (second compound 0.3 µM, first compound 0.316 µM) was 89.8%, the viability, T/C (second compound 0.3 µM, first compound 1 µM) was 83.7% and the viability, T/C (second compound 0.949 µM, first compound 0.00316 µM) was 110%. It also gave a viability, T/C (second compound 0.949 µM, first compound 0.01 µM) of 99.8%, a viability, T/C (second compound 0.949 µM, first compound 0.0316 µM) of 118% and a viability, T/C (second compound 0.949 µM, first compound 0.1 µM) of 96.6%. It also gave a viability, T/C (second compound 0.949 µM, first compound 0.316 µM) of 102%, a viability, T/C (second compound 0.949 µM, first compound 1 µM) of 81.7% and a viability, T/C (second compound 3 µM, first compound 0.00316 µM) of 86.5%. The viability, T/C (second compound 3 µM, first compound 0.01 µM) was 92%, the viability, T/C (second compound 3 µM, first compound 0.0316 µM) was 117% and the viability, T/C (second compound 3 µM, first compound 0.1 µM) was 84.1%. For the same compound, the viability, T/C (second compound 3 µM, first compound 0.316 µM) was 87.3% and the viability, T/C (second compound 3 µM, first compound 1 µM) was 110%.

In the case of `CNC(C)C(=O)NC1CN(S(=O)(=O)c2cccc(S(=O)(=O)N3CCC4CCC(C(=O)NC(c5ccccc5)c5ccccc5)N4C(=O)C(NC(=O)C(C)NC)C3)c2)CCC2CCC(C(=O)NC(c3ccccc3)c3ccccc3)N2C1=O` (centres undefined), the viability, T/C (compound 0.00316 µM) was 103% and 100% and 104%, the viability, T/C (compound 0.01 µM) was 106% [middle of 14 runs] and the viability, T/C (compound 0.0316 µM) was 102% [middle of 14 runs]. The viability, T/C (compound 0.1 µM) was 103% [middle of 14 runs], the pIC50 (compound alone, run of 10/24/2022) was < 6.00 and the pIC50 (compound alone, run of 11/15/2022) was < 6.00. For the same compound, the pIC50 (curve of compound) was < 6.00.
